According to PubChem BioAssay AID1189 (EPA DSSTox, 2008):
Calls of active or inactive are those of the source.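 How the source made its calls: active means a tumor-causing dose value with its tumor site reported for any sex and species group of a rodent or other animal cancer study; inconclusive means only studies judged inadequate by the national testing program; inactive means tested in at least one study, none positive.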

Assay: DSSTox (CPDBAS) Carcinogenic Potency Database Summary SingleCellCall Results
Details: animal chronic carcinogenicity bioassays, CPDB summary call
Excerpt: The Carcinogenic Potency Database (CPDB) is a unique and widely used international resource of the results of over 6500 chronic, long-term animal cancer tests on over 1500 chemical substances. The CPDB provides easy access to the bioassay literature, with qualitative and quantitative analyses of both positive and negative experiments that have been published over the past 50 years in the general literature and by the National Cancer Institute/National Toxicology Program. The CPDB standardizes the diverse literature of cancer bioassays that vary widely in protocol, histopathological examination and nomenclature, and in the published author's choices of what information to provide in their papers. Results are reported in the CPDB for tests in rats, mice, hamsters, dogs, and nonhuman primates, and are based on the most positive result among all experiments for each sex-species. The DSSTox CPDBAS (all species) file incorporates data from the CPDB Summary Tables for the full list of over 1500 chemical substances tested in at least one species. A summary SingleCellCall, based on experimental bioassay results of one or more species, is provided for the entire DSSTox CPDBAS file (see Source URL).
An assignment of categorical carcinogenic activity based on minimal evidence for or against activity. […] Associated TD50 values and tumor site details for the relevant species/sex experiment supporting this overall CPDBAS SingleSiteCall are provided in the full CPDBAS DSSTox file (see Comment) and the corresponding CPDBAS Species Bioassay in PubChem.

Row | SMILES | outcome
1 | CC(=O)Nc1ccc(-c2ccccc2)cc1 | active
2 | CC(Cl)(Cl)Cl | inactive
3 | ClC(Cl)(Cl)Cl | active; inactive
4 | CCN(CC)C(=O)/C(Cl)=C(\C)OP(=O)(OC)OC | inactive
5 | C=O | active
6 | Nc1ncc([N+](=O)[O-])s1 | active
7 | CCCC(Cl)CCC(Cl)CCC(Cl)CCC(Cl)CCC(Cl)CCC(Cl)CCC(C)Cl (configuration not stated) | active
8 | CC1(C)C(=O)Nc2ccc(C3=NNC(=O)CC3)cc21 | active
9 | O=C(O)C(Cl)Cl | active; inactive
10 | CC(=O)OC(OC(C)=O)c1ccc([N+](=O)[O-])o1 | inactive
11 | NC(=S)NNC(N)=S | inactive
12 | C=C1C[C@]23C[C@@]1(O)CC[C@H]2[C@@]12C=C[C@H](O)[C@@](C)(C(=O)O1)[C@H]2[C@@H]3C(=O)O | inactive
13 | O=S1(=O)N=C(O)c2ccccc21 | inactive
14 | Cc1ncc([N+](=O)[O-])n1C | active
15 | Oc1ccc2ccccc2c1N=Nc1ccccc1 | active
16 | C=Cc1cccc[n+]1[O-] | inactive
17 | CC(=O)OC[C@]12C[C@H](OC(=O)CC(C)C)C(C)=C[C@H]1O[C@@H]1[C@H](O)[C@@H](OC(C)=O)[C@@]2(C)C12CO2 (some centres not stated) | active; inactive
18 | Cc1ccc(N)c(C)c1 | active
19 | Cn1cc[nH]c1=S | active; inactive
20 | O=P1(N(CCCl)CCCl)NCCCO1 (configuration not stated) | active
21 | O=C(O)c1[nH]n(-c2ccc(S(=O)(=O)O)cc2)c(=O)c1N=Nc1ccc(S(=O)(=O)O)cc1 | inactive
22 | COc1ccc(CN(CCN(C)C)c2ccccn2)cc1 | active; inactive
23 | Clc1ccccc1Cl | inactive

Row | SMILES | outcome
24 | CCc1cccc2c3c([nH]c12)C(CC)(CC(=O)O)OCC3 (configuration not stated) | inactive
25 | OC[C@H]1O[C@@H]2O[C@H]3[C@H](O)[C@@H](O)[C@@H](O[C@H]4[C@H](O)[C@@H](O)[C@@H](O[C@H]5[C@H](O)[C@@H](O)[C@@H](O[C@H]6[C@H](O)[C@@H](O)[C@@H](O[C@H]7[C@H](O)[C@@H](O)[C@@H](O[C@H]8[C@H](O)[C@@H](O)[C@@H](O[C@H]1[C@H](O)[C@H]2O)O[C@@H]8CO)O[C@@H]7CO)O[C@@H]6CO)O[C@@H]5CO)O[C@@H]4CO)O[C@@H]3CO | inactive
26 | O=[N+]([O-])c1ccc(-c2nc(N3CCOCC3)c3ccccc3n2)s1 | active
27 | Nc1ccc2c(c1)oc1ccccc12 | active
28 | NC1=NC(=O)C(c2ccccc2)O1 (configuration not stated) | inactive; active
29 | CCC1(c2ccccc2)C(=O)NC(=O)NC1=O | active
30 | Nc1ccc2c(n1)[nH]c1ccccc12 | active
31 | O=C1CCCO1 | inactive
32 | ClC1=C(Cl)C(Cl)(Cl)C(Cl)=C1Cl | inactive; active
33 | O=NN(CCO)C(=O)NCCCl | active
34 | [Cl-].[Cl-].[Hg+2] | active
35 | OCc1ccccc1 | inactive
36 | CC(C)O | inactive
37 | Clc1cc2c(c(Cl)c1Cl)Oc1c(cc(Cl)c(Cl)c1Cl)O2 | active
38 | CC(=O)O[C@H]1CC[C@@]2(C)C(=CC[C@@H]3[C@@H]2CC[C@]2(C)C(=O)CC[C@@H]32)C1 | active
39 | S=C([S-])NCCNC(=S)[S-].[Mn+2] | active
40 | C=C(C)[C@H]1CC=C(C)C(=O)C1 | inactive; active
41 | CN(C)CCN(Cc1cccs1)c1ccccc1 | inactive
42 | Cc1ccc(OP(=O)(Oc2ccc(C)cc2)Oc2ccc(C)cc2)cc1 | inactive
43 | O=NN1CCCCO1 | active
44 | O=C1c2cccc(O)c2C(=O)c2c(O)cccc21 | active
45 | O=CNNc1nc(-c2ccco2)cs1 | inactive
46 | CCC1(c2ccccc2)C(=O)NCNC1=O | active

Row | SMILES | outcome
47 | O=S(=O)([O-])[O-].O=S(=O)([O-])[O-].[Zr+4] | inactive
48 | O=C1c2ccccc2C(=O)c2ccccc21 | inactive
49 | C=Cc1cccc(C)c1 | inactive; active
50 | COc1cc2c(c3oc(=O)c4c(c13)CCOC4=O)C1C=COC1O2 (configuration not stated) | active
51 | CC(C)Nc1nc(Cl)nc(NC(C)C)n1 | inactive
52 | O.O.O.O.O.O.O.O.O=S(=O)([O-])[O-].O=S(=O)([O-])[O-].O=S(=O)([O-])[O-].[Cd+2].[Cd+2].[Cd+2] | inactive
53 | COc1cc(CNC(=O)CCCC/C=C/C(C)C)ccc1O | active
54 | O=C1NCCN1 | inactive
55 | CCOC(=O)/C=C\C(=O)OCC | inactive; active
56 | O1[As]2O[As]3O[As]1O[As](O2)O3 | inactive
57 | Cc1cccc(N=Nc2ccc(N(C)C)cc2)c1 | active
58 | CCN(CC)CC#CC(C)(C)OC(=O)C(O)(c1ccccc1)C1CCCCC1 (configuration not stated) | inactive; active
59 | CC(C)(C)c1cc(O)ccc1O | inactive
60 | CC(=O)Nc1ccc(CC(=O)O)cc1 | inactive
61 | O=[N+]([O-])c1ccc(-c2cscn2)o1 | active
62 | Oc1ccccc1O | active
63 | C1CCOC1 | active; inactive
64 | CCCCC(CC)COC(=O)c1ccccc1C(=O)OCC(CC)CCCC (configuration not stated) | active
65 | [O]=[Mo](=[O])=[O] | active
66 | Nc1nc(N)nc(N)n1 | active
67 | Cc1ncc[nH]1 | active
68 | Cc1c(N)nc(C)c2c1[nH]c1ccccc12 | active
69 | Nc1ccc(N=Nc2ccc(-c3ccc(N=Nc4c(S(=O)(=O)O)cc5cc(S(=O)(=O)O)c(N=Nc6ccccc6)c(O)c5c4N)cc3)cc2)c(N)c1 | active; inactive

Row | SMILES | outcome
70 | CC(/C=C/C=C(\C)C(=O)O[C@@H]1O[C@H](CO[C@@H]2O[C@H](CO)[C@@H](O)[C@H](O)[C@H]2O)[C@@H](O)[C@H](O)[C@H]1O)=C\C=C\C=C(C)\C=C\C=C(/C)C(=O)O[C@@H]1O[C@H](CO[C@@H]2O[C@H](CO)[C@@H](O)[C@H](O)[C@H]2O)[C@@H](O)[C@H](O)[C@H]1O | inactive
71 | C[C@]12CC[C@H](O)CC1=CC[C@@H]1[C@@H]2CC[C@]2(C)C(=O)CC[C@@H]12 | active
72 | CCNc1nc(Cl)nc(NCC)n1 | inactive
73 | [N-]=[N+]=O | inactive
74 | O=C1C2(Cl)C3(Cl)C4(Cl)C(Cl)(Cl)C5(Cl)C3(Cl)C1(Cl)C5(Cl)C24Cl (configuration not stated) | active; inactive
75 | O=[N+]([O-])c1ccc(-c2nc(NCCO)c3ccccc3n2)s1 | active
76 | c1ccc2c(c1)Oc1ccccc1O2 | inactive; active
77 | O=NN1CCOC1=O | active; inactive
78 | C=CC(O)c1ccc2c(c1)OCO2 (configuration not stated) | active
79 | O=C1O[C@@H](CN2CCOCC2)CN1/N=C/c1ccc([N+](=O)[O-])o1 | active
80 | O=NN1CCCN(N=O)C1 | active
81 | S=c1nc[nH]c2nc[nH]c12 | inactive; active
82 | CCCCCCCC(=O)OCC(COC(=O)CCCCCCC)OC(=O)CCCCCCC | active
83 | C=C(Cl)CSC(=S)N(CC)CC | active; inactive
84 | [N-]=[N+]=CC(=O)OC[C@H](N)C(=O)O | active
85 | O=C(O)c1ccc(O)c(O)c1 | inactive
86 | [Na+] | inactive
87 | COC(=O)c1ccc(C(=O)OC)cc1 | inactive; active
88 | OCCN(CCO)C(=S)S | active
89 | Nc1cc(Cl)cc(C(=O)O)c1Cl | active; inactive
90 | C=CCl | active; inactive
91 | O=C(O)c1cc(O)c(O)c(O)c1 | inactive
92 | CCOC(=O)CBr | inactive

Row | SMILES | outcome
93 | CN1C(C(=O)Nc2ccccn2)=C(O)c2sc(Cl)cc2S1(=O)=O | inactive
94 | C=CCOc1ccc(CC(=O)O)cc1Cl | inactive
95 | N#CSCc1ccccc1 | inactive
96 | Cc1nnc2n1-c1sc(CCc3ccc(CC(C)C)cc3)cc1C(c1ccccc1Cl)=NC2C (configuration not stated) | inactive
97 | ClC(Cl)(Cl)C(Cl)(Cl)Cl | active
98 | Clc1ccc(C(c2ccc(Cl)cc2)C(Cl)Cl)cc1 | active
99 | OC(c1ccc(Cl)cc1)(c1ccc(Cl)cc1)C(Cl)(Cl)Cl | active
100 | FC(F)(Cl)Cl | inactive
101 | CNC(=O)Oc1cccc2c1OC(C)(C)C2 | inactive
102 | C=CCN(CC(O)CO)N=O (configuration not stated) | active
103 | ClCc1ccccc1 | active
104 | N[C@@H](Cc1c[nH]c2ccccc12)C(=O)O | inactive
105 | N#CS | inactive
106 | C=CC=O | inactive
107 | c1ccc2sc(SN3CCOCC3)nc2c1 | inactive
108 | NC(=O)N(CCF)N=O | active; inactive
109 | Clc1c(Cl)c(Cl)c(Cl)c(Cl)c1Cl | active; inactive
110 | CC1(C)[C@@H](O)CC[C@]2(C)[C@H]3C(=O)C=C4[C@@H]5C[C@@](C)(C(=O)O)CC[C@]5(C)CC[C@@]4(C)[C@]3(C)CC[C@@H]12 | inactive
111 | COc1ccc([C@@H]2CC(=O)c3c(O)cc(O[C@@H]4O[C@H](CO[C@@H]5O[C@@H](C)[C@H](O)[C@@H](O)[C@H]5O)[C@@H](O)[C@H](O)[C@H]4O)cc3O2)cc1OC | inactive
112 | [C-]1=CC=CC1.[C-]1=CC=CC1.[Cl-].[Cl-].[Ti+4] | inactive; active
